Measurements from patent US10487117B2, “Antimicrobial peptide for nosocomial infections” (priority 2015, dated 2019).
Converted amounts (≈) assume the structure as drawn. Like-named read-outs stand apart in the source and are kept apart here. Residues, ends and D or L forms follow the SMILES beside them.

Experiments:
Type in all cases: cell-based, Pseudomonas aeruginosa
planktonic P. aeruginosa [1] = assay: DiSC3(5) cytoplasmic membrane depolarization assay, planktonic; details: for Depolarization %max: 10% Triton X-100 as maximum reference
Procedure: To further investigate the antimicrobial mechanism of action of the peptide, its ability to depolarize P. aeruginosa membranes was evaluated. Depolarization activity was analyzed by the DiSC3(5) assay (Table 5). DiSC3(5) is a fluorescent probe, which is sensitive to membrane potential. The DiSC3(5) fluorescence is quenched upon interaction with intact cell membranes. When the membrane potential is lost, the probe is released to the medium, resulting in an increase of fluorescence that can be recorded as a function of peptide concentration. Thus, the half depolarization action (ED50) was evaluated, defined as the peptide concentration needed to achieve a half-depolarization effect, and the total depolarization activity at final incubation time (Table 3).
Membrane depolarization was followed using the method described earlier (Torrent M. et al. 2008). Briefly, bacterial cells were grown at 37° C. to an OD600=0.2, centrifuged at 5000×g for 7 min, washed with 5 mM Hepes at pH 7.2 containing 20 mM glucose, and resuspended in 5 mM Hepes-KOH, 20 mM glucose, and 100 mM KCl at pH 7.2 to an OD600=0.05 and 200 μl were transferred to a microtiter plate for planktonic assays. For biofilm assay, 24 h formed P. aeruginosa biofilm in a 96-well microtiter plate were washed three times with sterile PBS. Afterwards P. aeruginosa biofilms were washed with 5 mM Hepes at pH 7.2 containing 20 mM glucose, and rinsed in 5 mM Hepes-KOH, 20 mM glucose, and 100 mM KCl at pH 7.2. In both cases, DiSC3(5) was added to a final concentration of 0.4 μM and changes in the fluorescence were continuously recorded after addition of peptides at 10 μM in a Victor3 plate reader. A maximum reference value for total depolarization is calculated for Triton X-100 at 10%. Alternatively, changes in the fluorescence were continuously recorded after addition of a serially diluted protein/peptides from 50 to 0.1 μM. The peptide concentration required to achieve half of total and total membrane depolarization after 40 min incubation time was estimated from nonlinear regression analysis as previously described (Torrent M. et al. 2010)

planktonic P. aeruginosa [2] = test system: planktonic P. aeruginosa
Procedure: The microbial cell viability was then assayed using the BacTiter-Glo™ luminescent kit. […] No cell reduction was detected for the peptide GL-13 even for the maximum concentration assayed (50 μM).
Bacterial viability was assayed using the BacTiter-Glo™ microbial cell viability kit. Briefly, protein/peptides were dissolved in 10 mM sodium phosphate, 0.1M buffer, pH 7.5, serially diluted from 50 to 0.1 μM and tested in a 96-well microtiter plate containing P. aeruginosa planktonic (OD600˜0.2) or 24 h formed biofilm for 4 h at 37° C. Fifty microliters of BacTiter-Glo™ reagent was added to each well according to the manufacturer's instructions and incubated at room temperature for 15 min. Luminescence was read on a Victor3 plate reader with a 3-s integration time. Fifty percent (ED50) and total inhibitory concentrations were calculated by fitting the data to a dose-response curve.

[3] = test system: pre-established P. aeruginosa biofilm; assay: Biofilm eradication assay, crystal violet staining; details: 24 h formed biofilm; 4 h at 37° C.; 10% Triton X-100 as maximum reference
Procedure: Following, the biofilm eradication activity was determined (FIG. 1 and Table 6). […] Moreover, the biofilm eradication activity of all the tested reference peptides was well above the maximum concentration tested (50 μM), except for RN3(5-17P22-36) which was able to eradicate the biofilm close to 50 μM.
Biofilm formation assay was modified from the previously described protocol (Huedo P. et al. 2014). Briefly, overnight cultures of P. aeruginosa were centrifuged at 5000×g for 5 min, washed and adjusted to an OD600=0.1 in tryptic soy medium (TSB). Two hundred microliters of the bacterial suspension were dispensed in each well of a polystyrene 96-well microtiter plate (Greiner Bio-one, France). The plate was incubated at 37° C. on an orbital shaker (30 rpm). The media was exchanged with fresh pre-warmed TSB after 4 h, in order to remove the non-attached bacteria. After 24 h incubation, the formation of biofilm was then evaluated using the crystal violet staining technique (Stepanovic S. et al. 2000). Briefly, the plates were washed three times with PBS, fixed at 60° C. for 1 h, and stained for 15 min with 200 μl of 0.1% crystal violet. After the dye was discarded, plates were rinsed in PBS and allowed to dry for 30 min at 37° C. Crystal violet was dissolved in 250 μl of 95% ethanol for 15 min, and the OD570 of the extracted dye was measured using a Victor3 plate reader (Perkin-Elmer, Waltham, Mass.).
Biofilms were grown as above. Twenty-four hour formed P. aeruginosa biofilm was washed three times with sterile PBS, and rinsed with 10 mM sodium phosphate buffer pH 7.5. Each well was treated with increasing protein/peptide concentrations (from 0.01 to 50 μM) and incubated at 37° C. for 4 h. The biofilm eradication was then evaluated using the crystal violet staining technique (Stepanovic S. et al. 2000). The ability of the antimicrobial peptides to disperse and reduce the biofilm mass of preformed biofilms was calculated. The peptide concentration required to achieve total preformed biofilm eradication after 4 h incubation time was estimated. A maximum reference value was taken for Triton X-100 at 10%. The minimum biofilm eradication concentration (MBEC), defined as the protein/peptide concentration where the 99.9% of the biofilm mass is eradicated was estimated.

planktonic P. aeruginosa [4] = assay: Minimum inhibitory concentration (MIC100) assay; details: 4 h at 37° C., mean ± SEM, max 50 μM
Procedure: First the peptide ability to inhibit the proliferation of P. aeruginosa cells was assessed by determining the minimum inhibitory concentration (MIC100).
MIC100 of each protein/peptide was determined as described (Torrent M. et al. 2012). Bacteria were incubated at 37° C. overnight in Luria-Bertani broth (LB) and diluted to give approximately 5×10^5 CFU/mL. In each assay protein/peptide serially diluted from 50 to 0.2 μM in 10 mM sodium phosphate, 0.1 M NaCl, buffer pH 7.5 were added to 100 μl bacteria dilution and incubated for 4 h at 37° C. Subsequently, samples were plated onto Petri dishes and incubated at 37° C. overnight. MIC100 values were determined as function of the total growth inhibition by the protein and peptides, from two independent experiments performed in triplicate.

[5] = planktonic P. aeruginosa, 4 h at 37° C., mean ± SEM, N.D. = not detected at 50 μM, read-out: IC50 (50% bacterial viability)

SMILES | Depolarization %max (planktonic P. aeruginosa [1]) | IC50 (planktonic P. aeruginosa [2]; [5]) | Biofilm eradication (%max) [3] | MIC100 (planktonic P. aeruginosa [4]) | Depolarization ED50 (planktonic P. aeruginosa [1]; 40 min, N.D. = not detected at 50 μM) | IC50 (planktonic P. aeruginosa [2]; planktonic, 4 h)
CC[C@H](C)[C@H](NC(=O)[C@H](CCCCN)NC(=O)[C@H](CCC(=O)O)NC(=O)[C@H](CCCCN)NC(=O)[C@H](CO)NC(=O)[C@H](CCCCN)NC(=O)[C@H](CCCNC(=N)N)NC(=O)[C@H](Cc1ccccc1)NC(=O)[C@H](Cc1ccccc1)NC(=O)[C@H](CC(=O)O)NC(=O)CNC(=O)[C@H](CC(C)C)NC(=O)[C@@H](N)CC(C)C)C(=O)NCC(=O)N[C@@H](CCCCN)C(=O)N[C@@H](CCC(=O)O)C(=O)N[C@@H](Cc1ccccc1)C(=O)N[C@@H](CCCCN)C(=O)N[C@@H](CCCNC(=N)N)C(=O)N[C@H](C(=O)N[C@H](C(=O)N[C@@H](CCC(N)=O)C(=O)N[C@@H](CCCNC(=N)N)C(=O)N[C@H](C(=O)N[C@@H](CCCCN)C(=O)N[C@@H](CC(=O)O)C(=O)N[C@@H](Cc1ccccc1)C(=O)N[C@@H](CC(C)C)C(=O)N[C@@H](CCCNC(=N)N)C(=O)N[C@@H](CC(N)=O)C(=O)N[C@@H](CC(C)C)C(=O)N[C@H](C(=O)N1CCC[C@H]1C(=O)N[C@@H](CCCNC(=N)N)C(=O)N[C@H](C(=O)N[C@@H](CCC(=O)O)C(=O)N[C@@H](CO)C(N)=O)[C@@H](C)O)C(C)C)[C@@H](C)CC)C(C)C)[C@@H](C)CC [LL-37] | 28.24 ± 2.91% | 2.28 ± 0.22 µM | 35.54 ± 1.13% | 6.00 ± 0.05 µM (≈ 27 µg/mL) | – | –
CC[C@H](C)[C@H](NC(=O)CNC(=O)[C@@H](NC(=O)[C@H](CCCCN)NC(=O)[C@H](CCCCN)NC(=O)[C@H](Cc1ccccc1)NC(=O)[C@H](CC(C)C)NC(=O)[C@H](CCCCN)NC(=O)[C@H](Cc1c[nH]c2ccccc12)NC(=O)[C@@H](N)CCCCN)[C@@H](C)CC)C(=O)NCC(=O)N[C@@H](C)C(=O)N[C@H](C(=O)N[C@@H](CC(C)C)C(=O)N[C@@H](CCCCN)C(=O)N[C@H](C(=O)N[C@@H](CC(C)C)C(=O)N[C@H](C(=O)N[C@H](C(=O)NCC(=O)N[C@@H](CC(C)C)C(=O)N1CCC[C@H]1C(=O)N[C@@H](C)C(=O)N[C@@H](CC(C)C)C(=O)N[C@H](C(=O)N[C@@H](CO)C(N)=O)[C@@H](C)CC)[C@@H](C)O)[C@@H](C)O)C(C)C)C(C)C [CA-M] | 71.36 ± 7.60% | 2.54 ± 1.08 µM | 53.03 ± 1.46% | 6.00 ± 0.05 µM (≈ 16.8 µg/mL) | – | –
CC[C@H](C)[C@H](NC(=O)[C@H](CCC(N)=O)NC(=O)CN)C(=O)N[C@H](C(=O)N[C@@H](CC(N)=O)C(=O)N[C@@H](CC(C)C)C(=O)N[C@@H](CCCCN)C(=O)N[C@@H](C)C(=O)N[C@@H](CO)C(=O)N[C@@H](CC(C)C)C(=O)N[C@@H](CC(=O)O)C(=O)N[C@@H](CC(C)C)C(=O)N[C@@H](CC(C)C)C(N)=O)[C@@H](C)CC [GL-13, GQIINLKASLDLL-NH2] (H-GQIINLKASLDLL-NH2) | – | – | 33.28 ± 1.07% | >50 µM | not able to produce any depolarization effect | > 50 µM
